Experimental data taken from the supplement of paper PMC10307832.

Key:
Test in all cases: relative viability (nuclei count vs DMSO), 5 days (fraction); higher = more cells survive
[1] = compound: CN(C)C(=N)NC(=N)N [Metformin] + COc1cc2c(Oc3ccc(NC(=O)C4(C(=O)Nc5ccc(F)cc5)CC4)cc3F)ccnc2cc1OCCCN1CCOCC1 [Foretinib] (partner 0.25 µM)
Summary of the method: (§1)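 Five library-drug doses in √10 steps were combined with a fixed anchor-drug dose, or a single drug was given alone, by pin tool to lung cancer cell lines in 1536-well plates the day after seeding. Nuclei were stained and counted after 5 days. Relative viability is the nuclei count in treated wells over that in vehicle wells, taken as the median of duplicate plates.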

[2] = compound: N#CC1(c2ccc(NC(=O)c3cccnc3NCc3ccncc3)cc2)CCCC1 [Apatinib] + Nc1ncn([C@H]2C[C@H](O)[C@@H](CO)O2)c(=O)n1 [Decitabine] (partner 2 µM)
Summary of the method: as §1

[3] = compound: N#CC1(c2ccc(NC(=O)c3cccnc3NCc3ccncc3)cc2)CCCC1 [Apatinib] + CC1(C)CCC(c2ccc(Cl)cc2)=C(CN2CCN(c3ccc(C(=O)NS(=O)(=O)c4ccc(N[C@H](CCN5CCOCC5)CSc5ccccc5)c(S(=O)(=O)C(F)(F)F)c4)cc3)CC2)C1 [Navitoclax] (partner 0.5 µM)
Summary of the method: as §1

[4] = compound: CN(C)C(=N)NC(=N)N [Metformin] + Nc1ncn([C@H]2C[C@H](O)[C@@H](CO)O2)c(=O)n1 [Decitabine] (partner 2 µM)
Summary of the method: as §1

Row | Cell Line | relative viability ([1]; first compound 31.62 µM) | relative viability ([1]; first compound 100 µM) | relative viability ([1]; first compound 316.23 µM) | relative viability ([1]; first compound 1000 µM) | relative viability ([2]; first compound 0.08 µM) | relative viability ([2]; first compound 0.253 µM) | relative viability ([2]; first compound 0.8 µM) | relative viability ([2]; first compound 2.53 µM) | relative viability ([2]; first compound 8 µM) | relative viability ([3]; first compound 0.08 µM) | relative viability ([3]; first compound 0.253 µM) | relative viability ([3]; first compound 0.8 µM) | relative viability ([3]; first compound 2.53 µM) | relative viability ([3]; first compound 8 µM) | relative viability ([4]; first compound 31.62 µM) | relative viability ([4]; first compound 100 µM) | relative viability ([4]; first compound 316.23 µM) | relative viability ([4]; first compound 1000 µM) | relative viability ([1]; first compound 10 µM) | relative viability ([4]; first compound 10 µM)
1 | 201T | 1.21 | 1.38 | 1.01 | 0.824 | 0.863 | 0.895 | 0.842 | 0.85 | 0.781 | 1.2 | 1.24 | 1.19 | 1.27 | 1.18 | 0.824 | 0.805 | 0.799 | 0.776 | – | –
2 | A549 | 0.9 | 0.9 | 0.853 | 0.944 | 0.257 | 0.264 | 0.247 | 0.344 | 0.448 | 1.18 | 1.34 | 1.22 | 1.19 | 1.02 | 0.291 | 0.179 | 0.198 | 0.209 | 0.867 | 0.182
3 | A-427 | 1.2 | 0.954 | 0.981 | 1.23 | 0.604 | 0.583 | 0.533 | 0.575 | 0.618 | 0.929 | 0.911 | 0.934 | 0.853 | 0.478 | 0.587 | 0.571 | 0.521 | 0.574 | 1.12 | 0.524
4 | ABC-1 | 1.14 | 1.05 | 1.02 | 0.287 | – | 1.04 | 1.19 | 1.21 | 0.895 | – | – | – | – | – | 1.12 | 1.2 | 1.54 | 0.548 | 1.48 | –
5 | BEN | 1.25 | 1.04 | 0.799 | 1.33 | 0.694 | 0.668 | 0.672 | 0.693 | 0.723 | 0.0553 | 0.0606 | 0.0462 | 0.0661 | 0.0637 | 0.777 | 0.646 | 0.661 | 0.752 | 1.08 | 0.768
6 | CAL-12T | 1.32 | 1.04 | 1.04 | 0.76 | – | – | – | – | – | 1.26 | 1.23 | 1.1 | 1.17 | 1.03 | – | – | – | – | 1.25 | –
7 | COR-L23 | 0.861 | 0.863 | 0.836 | 0.975 | 0.514 | 0.509 | 0.452 | 0.427 | 0.413 | 1.05 | 1.02 | 0.871 | 0.885 | 0.827 | 0.514 | 0.365 | 0.388 | 0.435 | 0.88 | 0.456
8 | COR-L 105 | 1.38 | 1.23 | 1.14 | 0.791 | 0.706 | 0.716 | 0.631 | 0.711 | 0.632 | 0.665 | 1.03 | 0.695 | 0.841 | 0.636 | 0.64 | 0.695 | 0.719 | 0.697 | 1.23 | 0.588
9 | Calu-6 | 0.878 | 0.917 | 0.795 | 0.821 | – | – | – | – | – | 0.791 | 0.919 | 0.751 | 0.648 | 0.626 | – | – | – | – | 0.809 | –
10 | ChaGo-K-1 | 1.07 | 0.959 | 0.864 | 0.962 | 0.536 | 0.56 | 0.522 | 0.53 | 0.43 | – | 1.4 | 0.971 | 0.888 | 0.993 | 0.535 | 0.512 | 0.481 | 0.509 | 0.924 | 0.524
11 | EBC-1 | 0.09 | – | 0.103 | 0.0951 | – | – | – | – | – | 0.5 | 0.55 | 0.46 | 0.27 | 0.237 | – | – | – | – | 0.0914 | –
12 | EKVX | 1.03 | 0.886 | – | 0.303 | 0.352 | 0.291 | 0.339 | 0.309 | 0.298 | 0.882 | 0.946 | 0.98 | 0.888 | 0.826 | 0.302 | 0.369 | 0.325 | 0.322 | 0.456 | –
13 | EMC-BAC-2 | 1.1 | 1.09 | 0.976 | 1.09 | – | 0.967 | 0.925 | 0.954 | 1.01 | 1.2 | 1.13 | 1.14 | 1.07 | 0.974 | 1.02 | – | 0.855 | 0.861 | 1.03 | 0.844
14 | EPLC-272H | 0.909 | 0.978 | 0.784 | 1.09 | 0.395 | 0.324 | 0.405 | 0.307 | 0.342 | 1.06 | 1.05 | 0.961 | 1.04 | 0.731 | 0.415 | 0.426 | 0.38 | 0.507 | 0.864 | 0.383
15 | H3255 | 0.96 | 0.91 | 0.747 | 0.877 | 0.707 | 0.553 | 0.578 | 0.542 | 0.517 | 0.512 | 0.62 | 0.34 | 0.52 | 0.607 | 0.665 | 0.596 | 0.61 | 0.624 | 0.863 | 0.531
16 | HARA | 1.03 | 1.21 | 1 | 1.09 | 0.676 | 0.538 | 0.438 | – | 0.671 | 1.15 | 1.18 | 1.1 | 1.13 | 1.07 | 0.498 | 0.581 | 0.621 | 0.68 | – | 0.722
17 | HCC-15 | 1.06 | 1.1 | 0.905 | 0.911 | 0.703 | 0.656 | 0.638 | 0.604 | 0.606 | 0.733 | 0.718 | 0.681 | 0.608 | 0.653 | 0.636 | 0.703 | 0.662 | 0.703 | – | 0.548
18 | HCC-44 | – | – | – | – | 0.963 | 0.929 | 0.887 | 0.95 | 0.89 | 0.961 | 1.05 | 0.979 | 0.946 | 0.892 | 0.934 | 0.927 | 0.959 | 0.966 | – | –
